Experimental data from patent US20150209403A1, “Dose Adjustment” (AbbVie Inc., priority 2014, published 2015).
One block for each molecule: values may come before it.

Tests used:
[1] = DDI studies of 3D regimen with HIV-1 protease inhibitors (ATV, DRV, LPV/r); settings: for Total bilirubin elevation Grade 3, subjects: 3D regimen DDI study; for Cmax, AUC and Ctrough, % change: HIV PI co-administered with 3D regimen; for tolerability: co-administration with 3D regimen
[2] = Drug interaction study of 3D regimen with carbamazepine (CBZ); type: in vivo, human
Description: Single doses of the 3D regimen (Compound 1/r/ombitasvir 150/100/25 mg+dasabuvir 250 mg) were administered alone and in the presence of steady state CBZ 200 mg BID in 12 healthy subjects. Drug concentrations were determined from blood samples collected on multiple study days and PK parameters were estimated by noncompartmental analyses. Safety was assessed (adverse events, vital signs, ECG, etc.) throughout the study.

[3] = DDI studies of 3D regimen with HIV-1 N(t)RTIs, NNRTIs and INSTI; type: in vivo, human; settings: for exposures (Cmax and AUCτ), % change: both; for exposures (Cmax and AUCτ), % change / exposures (Cmax and AUCτ), effect: human, in vivo
[4] = Drug interaction study of 3D or 2D regimen with omeprazole; settings: human, in vivo, 40 mg
Description: In 24 healthy volunteers omeprazole (40 mg) were administered on day 1 and days 20-24. The 3D or 2D regimen (Compound 1/r 150/100 mg QD+ombitasvir 25 mg QD±dasabuvir 250 mg BID) was administered on days 6-24. Intensive PK sampling was performed for study drugs when dosed alone and during coadministration and parameters estimated by noncompartmental analyses. Safety was evaluated through assessment of adverse events, vital signs, ECG and clinical laboratory tests.

[5] = Drug interaction study of 3D or 2D with ketoconazole (KTZ); type: in vivo, human
Description: Single doses of Compound 1/r/ombitasvir 150/100/25 mg+/−dasabuvir 250 mg were administered alone and in the presence of steady state KTZ 400 mg QD in 24 healthy volunteers. Drug concentrations were determined from intensive blood samples and PK parameters were estimated by noncompartmental analyses. Safety assessment (adverse events, clinical labs, vital signs, ECG) was done throughout the study.

[6] = Drug interaction study of pravastatin and rosuvastatin with 3D or 2D; type: in vivo, human
Description: After a washout, multiple doses of pravastatin (10 mg QD, N=12) and rosuvastatin (5 mg QD, N=12) were administered with and without 3D or 2D to steady state in Period 2. […] Intensive PK sampling was performed in both periods and PK parameters estimated by noncompartmental analyses. Safety was evaluated through assessment of adverse events, vital signs, ECG and clinical laboratory tests.

[7] = RPV 75 mg QD; cited from earlier work
[8] = Drug interaction study of 3D or 2D regimen with digoxin; type: in vivo, human; settings: healthy volunteers
Description: Single doses of digoxin (0.5 mg) were administered alone and in presence of steady state Compound 1/r 150/100 mg QD+ombitasvir 25 mg QD+/−dasabuvir […] BID in 24 healthy volunteers. Drug concentrations were
determined from intensive blood samples collected on multiple study days and PK parameters were estimated by noncompartmental analyses. Safety was assessed (adverse events, vital signs, ECG, etc.) throughout the study.

[9] = human, in vivo
Text: Safety was monitored throughout the study.

[10] = single dose 3D or 2D with steady state KTZ 400 mg QD
[11] = LPV/r 800/200 mg QPM with 3D regimen

Structure (SMILES): COC(=O)N[C@H](C(=O)N[C@@H](Cc1ccccc1)[C@@H](O)CN(Cc1ccc(-c2ccccn2)cc1)NC(=O)[C@@H](NC(=O)OC)C(C)(C)C)C(C)(C)C [ATV, Atazanavir]
Total bilirubin elevation Grade 3, subjects ([1]; ATV QD arm): 10/24
Total bilirubin elevation Grade 3, subjects ([1]; ATV QPM arm): 16/24
Ctrough, % higher ([1]; ATV+RTV QPM with 3D regimen): 68%
Cmax, AUC and Ctrough, % change [1]: ≥ 20%
tolerability [1]: generally well tolerated

Structure (SMILES): NC(=O)N1c2ccccc2C=Cc2ccccc21 [CBZ, Carbamazepine]
Increases in ALT and AST, peak ([2]; 3D coadministered with CBZ): Grade 3 in 1 subject
exposures, % increase ([2]; CBZ with 3D): ≤ 17%
tolerability ([2]; coadministration of 3D with CBZ): generally tolerated

Structure (SMILES): Cc1cnc(C(=O)N[C@H]2CCCCC/C=C\[C@@H]3C[C@@]3(C(=O)NS(=O)(=O)C3CC3)NC(=O)[C@@H]3C[C@@H](Oc4nc5ccccc5c5ccccc45)CN3C2=O)cn1 [Compound 1, (2R,6S,13aS,14aR,16aS,Z)—N-(cyclopropylsulfonyl)-6-(5-methylpyrazine-2-carboxamido)-5,16-dioxo-2-(phenanthridin-6-yloxy)-1,2,3,5,6,7,8,9,10,11,13a,14,14a,15,16,16a-hexadecahydrocyclopropa[e]pyrrolo[1,2-a][1,4]diazacyclopentadecine-14a-carboxamide]
exposures (Cmax and AUCτ), % change [3]: up to ±32%
exposures (Cmax and AUCτ), effect [3]: not affected
exposures (Cmax and AUCτ), % higher ([1]; 3D regimen with LPV/r QPM or BID): ≤ 117%
Cmax, AUC or Ctrough, % change [4]: < 20%
AUCinf increased by [5, 10]: 98-116%
Cmax increased by ([5]; single dose 3D or 2D with steady state KTZ 400 mg QD, healthy volunteers): 37-72%

Structure (SMILES): COc1c(-c2ccc3cc(NS(C)(=O)=O)ccc3c2)cc(-n2ccc(=O)[nH]c2=O)cc1C(C)(C)C [Compound 2, N-(6-(3-tert-butyl-5-(2,4-dioxo-3,4-dihydropyrimidin-1(2H)-yl)-2-methoxyphenyl)naphthalen-2-yl)methanesulfonamide]
exposures (Cmax and AUCτ), % change [3]: up to ±18%
exposures (Cmax and AUCτ), effect [3]: not affected
Cmax, AUC or Ctrough, % change [4]: < 20%
Exposures increased by [5, 10]: up to 42%

Structure (SMILES): COC(=O)N[C@H](C(=O)N1CCC[C@H]1C(=O)Nc1ccc([C@@H]2CC[C@@H](c3ccc(NC(=O)[C@@H]4CCCN4C(=O)[C@@H](NC(=O)OC)C(C)C)cc3)N2c2ccc(C(C)(C)C)cc2)cc1)C(C)C [Compound 3]
exposures (Cmax and AUCτ), % change [3]: up to ±11%
exposures (Cmax and AUCτ), effect [3]: not affected
Exposures increased by [5, 10]: up to 26%

Structure (SMILES): CC(C)CN(C[C@@H](O)[C@H](Cc1ccccc1)NC(=O)O[C@H]1CO[C@H]2OCC[C@H]21)S(=O)(=O)c1ccc(N)cc1 [DRV, Darunavir]
tolerability [1]: generally well tolerated

Structure (SMILES): Cc1nnc(C(=O)NC(C)(C)c2nc(C(=O)NCc3ccc(F)cc3)c(O)c(=O)n2C)o1 [RAL, Raltegravir]
treatment discontinuations / premature discontinuation due to AE ([3]; co-administration of 3D regimen with HIV-1 ARV): no treatment discontinuations
tolerability ([3]; co-administration with 3D regimen): generally well tolerated

Structure (SMILES): Cc1cc(/C=C/C#N)cc(C)c1Nc1ccnc(Nc2ccc(C#N)cc2)n1 [RPV, Rilpivirine]
Cmax, fold higher than Cmax with RPV 25 mg QD [7]: approximately 2.6 fold
QTcF increase [7]: 10.7 ms

Structure (SMILES): C[C@H]1O[C@@H](O[C@H]2[C@@H](O)C[C@H](O[C@H]3[C@@H](O)C[C@H](O[C@H]4CC[C@@]5(C)[C@H](CC[C@@H]6[C@@H]5C[C@@H](O)[C@]5(C)[C@@H](C7=CC(=O)OC7)CC[C@]65O)C4)O[C@@H]3C)O[C@@H]2C)C[C@H](O)[C@@H]1O [digoxin]
exposures (Cmax and AUCinf) increased by ([8]; digoxin 0.5 mg single dose with 2D): 24-58%
exposures (Cmax and AUCinf) increased by ([8]; digoxin 0.5 mg single dose with 2D, listed as Digoxin): ≤ 58%
exposures (Cmax and AUCinf) increased by ([8]; digoxin 0.5 mg single dose with 3D): 15-16%
exposures (Cmax and AUCinf) increased by ([8]; digoxin 0.5 mg single dose with 3D, listed as Digoxin): ≤ 16%

Other lines, results leading:

AUC24 increased by ([5]; in vivo): 105-117%
Cmax, % change ([5]; in vivo): < 20%
Structure (SMILES): CC(=O)N1CCN(c2ccc(OCC3COC(Cn4ccnc4)(c4ccc(Cl)cc4Cl)O3)cc2)CC1 (centres unmarked) [KTZ, Ketoconazole]

Cmax, AUC and Ctrough, % change [1]: ≤ 15%
Ctrough versus values observed with LPV/r 400/100 mg BID administered alone [1, 11]: comparable
Ctrough, % higher [1, 11]: 218%
Structure (SMILES): Cc1cccc(C)c1OCC(=O)N[C@@H](Cc1ccccc1)[C@@H](O)C[C@H](Cc1ccccc1)NC(=O)[C@H](C(C)C)N1CCCNC1=O [LPV, Lopinavir]

AUC, % higher ([6]; statin with 3D or 2D): ~80%
Cmax, % higher ([6]; statin with 3D or 2D): about 40%
Structure (SMILES): CC[C@H](C)C(=O)O[C@H]1C[C@H](O)C=C2C=C[C@H](C)[C@H](CC[C@@H](O)C[C@@H](O)CC(=O)O)[C@H]21 [Pravastatin]

AUC, % higher ([6]; statin with 2D): 32%
Cmax, % higher ([6]; statin with 2D): 161%
AUC, % higher ([6]; statin with 3D): 159%
Cmax, % higher ([6]; statin with 3D): 613%
Structure (SMILES): CC(C)c1nc(N(C)S(C)(=O)=O)nc(-c2ccc(F)cc2)c1/C=C/[C@@H](O)C[C@@H](O)CC(=O)O [Rosuvastatin]

exposures (Cmax and AUCτ), % change [3]: ±17%
exposures (Cmax and AUCτ), effect [3]: not affected
Exposures increased by [5, 10]: 27-57%
Structure (SMILES): CC(C)c1nc(CN(C)C(=O)N[C@H](C(=O)N[C@@H](Cc2ccccc2)C[C@H](O)[C@H](Cc2ccccc2)NC(=O)OCc2cncs2)C(C)C)cs1 [ritonavir]

tacrolimus DN_AUCinf, fold of tacrolimus exposure when administered alone [9]: 57-86 fold
tacrolimus DN_Cmax, fold of tacrolimus exposure when administered alone [9]: 3.7-4.3 fold
tacrolimus DN_C24, fold of tacrolimus exposure when administered alone ([9]; 24 h): 17-25 fold
Structure (SMILES): C=CC[C@@H]1/C=C(\C)C[C@H](C)C[C@H](OC)[C@H]2O[C@@](O)(C(=O)C(=O)N3CCCC[C@H]3C(=O)O[C@H](/C(C)=C/[C@@H]3CC[C@@H](O)[C@H](OC)C3)[C@H](C)[C@@H](O)CC1=O)[C@H](C)C[C@@H]2OC [tacrolimus]
